Assay results as given in article PMC11445181 (Frontiers in Plant Science, 2024).

Target: T1, LcCOMT (Conioselinum anthriscoides, UniProt A0A0K1YW34)
T1 construct: full-length cDNA in pET28a, His-tagged, E. coli BL21 (DE3), Ni-agarose purified; homodimer (N-terminal dimerization domain)
T1 sequence (A0A0K1YW34 1-362): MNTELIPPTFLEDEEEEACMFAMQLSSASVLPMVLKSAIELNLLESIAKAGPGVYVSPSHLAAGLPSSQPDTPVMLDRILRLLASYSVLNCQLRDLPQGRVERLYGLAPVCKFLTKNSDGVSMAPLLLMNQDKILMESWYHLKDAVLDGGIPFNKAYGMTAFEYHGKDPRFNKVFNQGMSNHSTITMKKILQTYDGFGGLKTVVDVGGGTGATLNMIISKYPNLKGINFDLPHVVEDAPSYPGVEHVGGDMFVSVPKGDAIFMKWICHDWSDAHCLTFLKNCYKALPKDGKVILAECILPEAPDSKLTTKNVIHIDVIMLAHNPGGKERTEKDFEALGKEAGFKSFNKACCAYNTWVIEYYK
Assay: inhibition of N-acetylserotonin methylation
Type: biochemical
Conditions: 2.0 mM N-acetylserotonin; caffeic acid is itself a substrate (competing substrate)

% reduction in activity at 1.0 mM: 31.80%
SMILES: O=C(O)/C=C/c1ccc(O)c(O)c1 [caffeic acid]
